# Test system: microfilariae of Dirofilaria immitis
# Experiment: Dirofilaria immitis, Microfilaria (DiMF) Assay
# Format: cell-based
# Conditions: read-out: D. immitis activity level (IC50 or MED)
# Outline: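 D. immitis microfilariae were incubated in medium with DMSO-diluted compounds for about 72 h. Survival or paralysis was scored subjectively under the microscope. Values are Minimum Effective Dose (MED).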
row,Compound,IC50
1,"CC(C)Oc1ccc(-c2nsc(Nc3ncc(C(F)(F)F)cc3N(C)C(=O)C3CC3)n2)nc1 [Compound 248, N-(2-(3-(5-isopropoxy-pyridin-2-yl)-1,2,4-thiadiazol-5-ylamino)-5-(trifluoro-methyl)pyridin-3-yl)-N-methylcyclo-propanecarbox-amide]",< 200 nM
2,"CC(=O)N(C)c1cc(C(F)(F)F)cnc1Nc1nc(-c2cc3c(cn2)N(C)CC3)ns1 [Compound 249, N-methyl-N-(2-(3-(1-methyl-2,3-dihydro-1H-pyrrolo[2,3-c]pyridin-5-yl)-1,2,4-thiadiazol-5-ylamino)-5-(trifluoromethyl)pyridin-3-yl)acetamide]",< 200 nM
3,"CC(C)Oc1cnc(-c2nsc(Nc3ncccc3C(=O)N3CCCC3)n2)cc1C(F)(F)F [Compound 251, (2-(3-(5-isopropoxy-4-(trifluoromethyl)pyridin-2-yl)-1,2,4-thiadiazol-5-ylamino)pyridin-3-yl) (pyrrolidin-1-yl)methanone]",500 to 5000 nM
4,"Cc1cnc(Nc2nc(-c3cc(C(N)=O)c(OC(C)C)cn3)ns2)c(C(F)(F)F)c1 [Compound 252, 5-isopropoxy-2-(5-(5-methyl-3-(trifluoro-methyl)pyridin-2-ylamino)-1,2,4-thiadiazol-3-yl)isonico-tinamide]",500 to 5000 nM
5,"COc1cnc(Nc2nc(-c3cc(C(N)=O)c(OC(C)C)cn3)ns2)c(C(F)(F)F)c1 [Compound 253, 5-isopropoxy-2-(5-(5-methoxy-3-(trifluoro-methyl)pyridin-2-ylamino)-1,2,4-thiadiazol-3-yl)isonico-tinamide]",500 to 5000 nM
6,"Cc1cnc(Nc2nc(-c3cc(C(=O)N(C)C)c(OC(C)C)cn3)ns2)c(C(F)(F)F)c1 [Compound 254, 5-isopropoxy-N,N-dimethyl-2-(5-(5-methyl-3-(trifluoromethyl)pyridin-2-ylamino)-1,2,4-thiadiazol-3-yl)isonico-tinamide]",500 to 5000 nM
7,"COc1ccc(-c2nnc(Nc3cc(OC(C)C)ccn3)[nH]2)nc1 [Compound 257, 4-isopropoxy-N-(5-(5-methoxy-pyridin-2-yl)-4H-1,2,4-triazol-3-yl)pyridin-2-amine]",500 to 5000 nM
8,"CC(C)Oc1cnc(-c2nsc(Nc3ncccc3C(=O)N(C)C)n2)cc1C(F)F [Compound 260, 2-(3-(4-(difluoro-methyl)-5-isopropoxy-pyridin-2-yl)-1,2,4-thiadiazol-5-ylamino)-N,N-dimethyl-nicotinamide]",200 to 500 nM
9,"CC(=O)N(C)c1cccnc1Nc1nc(-c2cc(C(F)F)c(OC(C)C)cn2)ns1 [Compound 261, N-(2-(3-(4-(difluoromethyl)-5-isopropoxy-pyridin-2-yl)-1,2,4-thiadiazol-5-ylamino)pyridin-3-yl)-N-methylacetamide]",200 to 500 nM
10,"CC(C)Oc1ccc(-c2nsc(Nc3ncccc3C(=O)N(C)C3CC3)n2)nc1 [Compound 262, N-cyclo-propyl-2-(3-(5-isopropoxy-pyridin-2-yl)-1,2,4-thiadiazol-5-ylamino)-N-methyl-nicotinamide]",200 to 500 nM
11,"CC(C)Oc1cnc(-c2nsc(Nc3ncccc3C(=O)N(C)C3CC3)n2)cc1C(F)(F)F [Compound 263, N-cyclo-propyl-2-(3-(5-isopropoxy-4-(trifluoro-methyl)pyridin-2-yl)-1,2,4-thiadiazol-5-ylamino)-N-methyl-nicotinamide]",< 200 nM
12,"COc1cnc(Nc2nc(-c3cc(C(=O)N(C)C)c(OC(C)C)cn3)ns2)c(C(F)(F)F)c1 [Compound 264, 5-isopropoxy-2-(5-(5-methoxy-3-(trifluoro-methyl)pyridin-2-ylamino)-1,2,4-thiadiazol-3-yl)-N,N-dimethyliso-nicotinamide]",200 to 500 nM
13,"Cc1cccnc1Nc1nc(-c2ccc(OC3CCN(C(=O)C(C)C)CC3)cn2)ns1 [Compound 265, 2-methyl-1-(4-(6-(5-(3-methylpyridin-2-ylamino)-1,2,4-thiadiazol-3-yl)pyridin-3-yloxy)piperidin-1-yl)propan-1-one]",500 to 5000 nM
14,"CC(=O)N1CCC(Oc2ccc(-c3nsc(Nc4ncccc4C)n3)nc2)CC1 [Compound 266, 1-(4-(6-(5-(3-methyl-pyridin-2-ylamino)-1,2,4-thiadiazol-3-yl)pyridin-3-yloxy)piperidin-1-yl)ethanone]",500 to 5000 nM
15,"CC(=O)N1CCc2cc(-c3nsc(Nc4ncccc4C(F)(F)F)n3)ncc21 [Compound 267, 1-(5-(5-(3-(trifluoromethyl)pyridin-2-ylamino)-1,2,4-thiadiazol-3-yl)-2,3-dihydro-1H-pyrrolo[2,3-c]pyridin-1-yl)ethanone]",200 to 500 nM
16,"CC(=O)N(C)c1cc(C(F)(F)F)cnc1Nc1nc(-c2cc(C(F)(F)F)c(OC(C)C)cn2)ns1 [Compound 268, N-(2-(3-(5-isopropoxy-4-(trifluoromethyl)pyridin-2-yl)-1,2,4-thiadiazol-5-ylamino)-5-(trifluoromethyl)pyridin-3-yl)-N-methylacetamide]",< 200 nM
17,"CC(=O)N(C)c1ccc(-c2nsc(Nc3ncccc3C)n2)nc1 [Compound 269, N-methyl-N-(6-(5-(3-methylpyridin-2-ylamino)-1,2,4-thiadiazol-3-yl)pyridin-3-yl)acetamide]",500 to 5000 nM
18,"CC(=O)N(C)c1cccnc1Nc1nc(-c2cc3c(cn2)OC(C)(C)C3)ns1 [Compound 271, N-(2-(3-(2,2-dimethyl-2,3-dihydrofuro [2,3-c]pyridin-5-yl)-1,2,4-thiadiazol-5-ylamino)pyridin-3-yl)-N-methylacetamide]",500 to 5000 nM
19,"CC(=O)N(C)c1cc(C(F)(F)F)cnc1Nc1nc(-c2cc3c(cn2)OC(C)(C)C3)ns1 [Compound 272, N-(2-(3-(2,2-dimethyl-2,3-dihydrofuro [2,3-c]pyridin-5-yl)-1,2,4-thiadiazol-5-ylamino)-5-(trifluoromethyl)pyridin-3-yl)-N-methylacetamide]",< 200 nM
20,"CC(=O)N(C)c1cc(C(F)(F)F)cnc1Nc1nc(-c2cc3c(cn2)N(C(C)C)CC3)ns1 [Compound 273, N-(2-(3-(1-isopropyl-2,3-dihydro-1H-pyrrolo[2,3-c]pyridin-5-yl)-1,2,4-thiadiazol-5-ylamino)-5-(trifluoromethyl)pyridin-3-yl)-N-methylacetamide]",< 200 nM
21,"Cc1cnc(Nc2nc(-c3cc(OC4COC4)ccn3)ns2)c(C(F)(F)F)c1 [Compound 275, N-(5-methyl-3-(trifluoromethyl)pyridin-2-yl)-3-(4-(oxetan-3-yloxy)pyridin-2-yl)-1,2,4-thiadiazol-5-amine]",< 200 nM
22,"COC(=O)c1cccnc1Nc1nc(-c2ccc(OC(C)C)cn2)ns1 [Compound 276, methyl 2-(3-(5-isopropoxy-pyridin-2-yl)-1,2,4-thiadiazol-5-ylamino) nicotinate]",500 to 5000 nM
